Reference: patent US5380834A, “Immuno-suppressive agent” (Ishihara Sangyo Kaisha Ltd., priority 1992, dated 1995)
In brackets after ≈: the same amount, converted by molar mass.

How the values were obtained:
[1] = system: murine mixed lymphocyte reaction (spleen cells of BALB/c and C57BL/6 mice); test: Effects on the murine mixed lymphocyte reaction (3H-TdR uptake); format: cell-based; details: Mus musculus, BALB/c + C57BL/6 spleen cells, 48 hours, read-out: IC50 value, b (murine mixed lymphocyte reaction)
Method: Using spleen cells of BALB/c and C57BL/6 mice, the effect of the compound of the formula (I) on the murine mixed lymphocyte reaction in both sides, was studied. Namely, spleen cells of both types of mice were mixed in an equal amount of 5×10^5 cells each, and the mixed cells were cultured together with the compound of the formula (I) for 48 hours on a microplate with 96 wells by a 10% FCS-RPMI solution (in an incubator, 5% CO2, at 37° C.). Then, 0.5 μCi of ^3 H-TdR was added thereto, and the mixture was further cultured for from 16 to 18 hours. Then, cells were collected by a cell harvester, and the radioactivity (dpm) of ^3 H-TdR uptaken into the cells, was measured. Such measured amounts of ^3 H-TdR uptaken into the cells were used as indices for the mixed lymphocyte reaction, and the radioactivity at each concentration (from 0.001 to 1,000 μg/ml) of the compound of the formula (I) was compared with the non-treated control value, to calculate the Ic50 value.
For the basic procedure for this test, reference was made to Selected methods in cellular immunology, p. 147-149 (translated by Katsuyuki Imai et al., published by Rikogakusha, (1982)).

[2] = system: IgGl antibody production from murine spleen B cells; test: Effects on the IgGl antibody production from murine spleen cells (LPS + IL4); format: cell-based, BALB/c mouse; details: Mus musculus, B-cell, 168 h; spleen B cells, LPS 10 μg/ml, IL4 100 U/ml, 7 days, enzyme-immunoassay; read-out: IC50 value, IgGl antibody production
Method: (§1) Using murine spleen B cells, the effects of the compound of the formula (I) on the IgGl, IgM and IgE antibody production induced by the stimulation by LPS (lipopolysaccharide; Product No. 520.02051, manufactured by Wako Junyaku) and IL4 (interleukin 4), were studied. Namely, spleen cells of a BALB/c mouse were treated with a murine anti-Thy-1 antibody (obtained from Chiba University) and a rabbit complement (Product No. 3051, manufactured by cedarlane) to remove T cells, and 3×10^5 spleen B cells were cultured for 7 days together with 10 μg/ml of LPS, 100 U/ml of mouse-recombinant IL4 (Product No. MIL-4C, manufactured by Genzyme) and each concentration (from […]) of the compound of the formula (I) on a microplate with 96 wells by a 10% FCS-RPMI solution (in an incubator, 5% CO2, at 37° C.).
(§2) For the basic procedure of this test, reference was made to The Journal of Immunology, Vol. 136, p. 4538, (1986).
(§3) The amount of each antibody in the cell culture supernatant hereby obtained, was measured by the following enzyme-immunoassay. Firstly, on a microplate with 96 wells, 1 μg/ml of a rabbit anti-mouse IgGl antibody (Product No. 36243, manufactured by Cappel), 1 μg/ml of a goat anti-mouse IgM antibody (Product No. 0611-0201, manufactured by Cappel) or 10 μg/ml of a rat anti-mouse IgE monoclonal antibody (Product No. LO-ME-2, manufactured by Experimental Immunology) was coated (50 μl/well, at room temperature for 60 minutes), and then a nonspecific bond was blocked by a 0.1% bovine serum albumin-containing 10 mM sodium phosphate buffer (pH 7.2) (at room temperature for 60 minutes). Then, the above-mentioned cell culture supernatant or its diluted solution was added in an amount of 50 μl/well and reacted at room temperature for 60 minutes. Further, an alkaline phosphatase-labeled rabbit anti-mouse IgGl antibody (Product No. 61-0122, manufactured by Zymet) diluted 1,000 times, an alkaline phosphatase-labeled rabbit anti-mouse IgM antibody (Product No. 61-6822, manufactured by Zymet) diluted 2,000 times, or an alkaline phosphatase-labeled goat anti-mouse IgE antibody (Product No. PA-284, manufactured by Binding Site) diluted 500 times was added in an amount of 50 μl/well and reacted at room temperature for 60 minutes. 100 μl/well of a 10% diethanol amine buffer solution (pH 9.8) containing p-nitrophenyl phosphate as an enzyme substrate, was reacted, and the absorbance at 405 nm was measured. The amount of each antibody was calculated from the calibration curve of each standard antibody, and the IC50 value of the compound of the formula (I) on the antibody production was calculated using as the control value a value obtained in the absence of the compound of the formula (I).

[3] = system: IgE antibody production from murine spleen B cells; test: Effects on the IgE antibody production from murine spleen cells (LPS + IL4); format: cell-based, BALB/c mouse; details: Mus musculus, B-cell, 168 h; spleen B cells, LPS 10 μg/ml, IL4 100 U/ml, 7 days, enzyme-immunoassay; read-out: IC50 value, IgE antibody production
Method: as §1, §2, §3

[4] = system: IgM antibody production from murine spleen B cells; test: Effects on the IgM antibody production from murine spleen cells (LPS + IL4); format: cell-based, BALB/c mouse; details: Mus musculus, B-cell, 168 h; spleen B cells, LPS 10 μg/ml, IL4 100 U/ml, 7 days, enzyme-immunoassay; read-out: IC50 value, IgM antibody production
Method: as §1, §2, §3

murine thymocytes = test: Effects on the mitogenic response by murine thymocytes (Con A stimulation, 3H-TdR uptake); format: cell-based, BALB/c murine; details: Mus musculus, Thymocyte; BALB/c thymocytes, Con A 5 μg/ml, 48 hours, 3H-TdR uptake; read-out: IC50 value, a (mitogenic response of murine thymocytes)
Method: Using BALB/c murine thymocytes, the effect of the compound of the formula (I) on the mitogenic response of lymphocytes to the stimulation by concanavalin A (hereinafter referred to simply as Con A, Product No. L-1000, manufactured by Vector Laboratories) was studied. Namely, 4×10^5 murine thymocytes were cultured for 48 hours on a microplate with 96 wells in a RPMI1640 solution containing 10% of a fetal bovine serum (hereinafter referred to simply as a 10% FCS-RPMI solution) together with Con A (5 μg/ml) and the compound of the formula (I) (in an incubator, 5% CO2, at 37° C.). Then, 0.5 μCi of ^3 H-thymidine (hereinafter referred to simply as ^3 H-TdR) was added thereto, and the mixture was further cultured for 4 hours. Then, cells were collected by a cell harvester, and the radioactivity (dpm) of ^3 H-TdR uptaken into cells was measured. Such measured amounts of ^3 H-TdR uptaken into the cells were used as indices of the mitogenic response of the murine thymocytes, and the radioactivity at each concentration (from 0.001 to 1,000 μg/ml) of the compound of the formula (I) was compared with the control value treated solely by Con A, to calculate IC50 value. In these Tables 12 and 13, the results of murine thymocytes are shown by (a).
For the basic procedure of this test, reference was made to Selected methods in cellular immunology, p. 144-146 (translated by Katsuyuki Imai et al., published by Rikogakusha, (1982)).

murine bone mallow cells = test: Effects on the murine bone mallow cells (proliferation, 3H-TdR uptake); format: cell-based, BALB/c mouse; details: Mus musculus, bone marrow cells; 20% L929 culture supernatant, 48 hours, 3H-TdR uptake; Tables 12-15; read-out: IC50 value, c (murine bone mallow cells)
Method: Bone mallow cells were removed from the femur of a BALB/c mouse and suspended in a 10% FCS-RPMI solution. The cell suspension was put into a plastic Petri dish having a diameter of 10 cm and left to stand still (in an incubator, 5% CO2, at 37° C.). Two hours later, only floating cells were recovered, and adhesion cells were removed. 1×10^5 floating cells were cultured for 48 hours together with a 20% culture supernatant of L929 fibroblastoma and the compound of the formula (I) on a microplate with 96 wells by a 10% FCS-RPMI solution (in an incubator, 5% CO2, at 37° C.). Then, 0.5 μCi of ^3 H-TdR was added thereto, and the mixture was further cultured for 4 hours. Then, cells were collected by a cell harvester, and the radioactivity (dpm) of ^3 H-TdR uptaken into the cells, was measured. Such measured amounts of ^3 H-TdR uptaken into the cells were used as indices for the proliferation of bone mallow cells, and the radioactivity at each concentration (from 0.001 to 1,000 μg/ml) of the compound of the formula (I) was compared with the control value where the L929 culture supernatant was added alone, to calculate the IC50 value. In these Tables 12 and 13, the results of the bone mallow cells are shown by (c).
For the basic procedure of this test, reference was made to Seikagakujikken Koza compiled by Japan Biochemistry Association, Vol. 5, p. 266-270 (published by Tokyo Kagaku Dojin in 1986).

SMILES	IC50 [1] [mg/L]	IC50 [2] [mg/L]	IC50 [3] [mg/L]	IC50 [4] [mg/L]	IC50 (murine thymocytes) [mg/L]	IC50 (murine bone mallow cells) [mg/L]
CC(=O)O[C@@]1(C)C=C[C@H]2CO[C@@H]1O2 [Compound 32, 2-O-acetyl-1,6-anhydro-3,4-dideoxy-2-C-methyl-β-D-threo-hex-3-enopyranose]	540	400	2.8	350	320 (≈ 1740 µM)	540 (≈ 2930 µM)
CCCC#C[C@]1(O)C=C[C@H]2CO[C@@H]1O2 [Compound 31]	560	1.5	140	10	180 (≈ 927 µM)	520 (≈ 2680 µM)
O=C(O[C@H]1C=C[C@H]2CO[C@@H]1O2)c1cccs1 [Compound 14]	13	10	3.7	0.89	42 (≈ 176 µM)	500 (≈ 2100 µM)
O=C(O[C@H]1C=C[C@H]2CO[C@@H]1O2)c1ccc(Cl)cc1 [Compound 16]	190	41	50	20	91 (≈ 341 µM)	170 (≈ 637 µM)
S=C(Oc1ccccc1)O[C@H]1C=C[C@H]2CO[C@@H]1O2 [Compound 26]	20	23	4.5	110	44 (≈ 166 µM)	200 (≈ 757 µM)
O[C@@H]1C=C[C@H]2CO[C@@H]1O2 [Compound 103, 1,6-anhydro-3,4-dideoxy-β-D-erythro-hex-3-enopyranose]	> 1000	0.45	2.1	1.3	780 (≈ 6090 µM)	> 1000
Cc1ccccc1C(=O)O[C@H]1C=C[C@H]2CO[C@@H]1O2 [Compound 50]	180	< 0.001	< 0.001	< 0.001	52 (≈ 211 µM)	380 (≈ 1540 µM)
O=C(Nc1ccccc1)O[C@H]1C=C[C@H]2CO[C@@H]1O2 [Compound 23, 1,6-anhydro-3,4-dideoxy-2-O-phenylcarbamoyl-β-D-threo-hex-3-enopyranose]	170	72	43	69	95 (≈ 384 µM)	49 (≈ 198 µM)
Cc1ccc(S(=O)(=O)O[C@H]2C=C[C@H]3CO[C@@H]2O3)cc1 [Compound 46, 1,6-anhydro-3,4-dideoxy-2-O-(p-toluene)sulfonyl-β-D-threo-hex-3-enopyranose]	22	0.25	0.32	0.35	110 (≈ 390 µM)	190 (≈ 673 µM)
O=C(O[C@H]1C=C[C@H]2CO[C@@H]1O2)c1cccnc1 [Compound 15]	480	220	320	78	130 (≈ 557 µM)	310 (≈ 1330 µM)

Second part, led by results:

IC50 [1] [mg/L]	IC50 [2] [mg/L]	IC50 [3] [mg/L]	IC50 [4] [mg/L]	IC50 (murine thymocytes) [mg/L]	SMILES	IC50 (murine bone mallow cells) [mg/L]
240	5.2	3.2	500	150 (≈ 355 µM)	CCCCCCCCCCCCCCCCCCCC(=O)O[C@H]1C=C[C@H]2CO[C@@H]1O2 [Compound 20]	400 (≈ 946 µM)
100	17	0.22	10	170 (≈ 845 µM)	CNC(=S)O[C@H]1C=C[C@H]2CO[C@@H]1O2 [Compound 24, 1,6-anhydro-3,4-dideoxy-2-O-methylthiocarbamoyl-β-D-threo-hex-3-enopyranose]	620 (≈ 3080 µM)
560	24	28	0.11	110 (≈ 390 µM)	CCCCCCCCCC(=O)O[C@H]1C=C[C@H]2CO[C@@H]1O2 [Compound 12, 1,6-anhydro-2-O-decanoyl-3,4-dideoxy-β-D-threo-hex-3-enopyranose]	560 (≈ 1980 µM)
18	< 0.001	< 0.001	< 0.001	1.4 (≈ 6.84 µM)	O=C(CCl)O[C@H]1C=C[C@H]2CO[C@@H]1O2 [Compound 10]	68 (≈ 332 µM)
76	330	180	410	49 (≈ 134 µM)	CCCCCCCCCCCCCCCC(=O)O[C@H]1C=C[C@H]2CO[C@@H]1O2 [Compound 7]	89 (≈ 243 µM)
430	0.0015	0.0034	78	0.32 (≈ 1.41 µM)	CC(C)(C)NC(=O)O[C@H]1C=C[C@H]2CO[C@@H]1O2 [Compound 25]	340 (≈ 1500 µM)
